{
  "source": "patent US20040152713A1",
  "about": "“Methods for treating joint pain or improving sleep using an estrogen agonist/antagonist” (Pfizer Inc., priority 2003, published 2004)",
  "key": {"postmenopausal women [1]": {"tested_on": "postmenopausal women", "assay": "Randomized, double blind, placebo controlled study of oral lasofoxifene on joint pain (visual analog scale pain score)", "format": "in vivo, human", "settings": "3 months assessment, self-reported VAS 100 mm scale (0 mm=no pain, 100 mm=worst pain)", "procedure": "(§1) The Effects of Oral Administration of (−)-cis-6-phenyl-5-[4-(2-pyrrolidin-1-yl-ethoxy)-phenyl]-5,6,7,8-tetrahydro-naphthalene-2-ol, D-tartrate salt (Iasofoxifene) on Joint Pain: A Randomized, Double Blind, Placebo Controlled Study Subjects: A double blind, randomized, placebo controlled trial of approximately three hundred and seventy five women between the ages of 50 and 74 years of age inclusive, and 1-20 years postmenopausal was carried out. The subjects selected for the study were ambulatory females between the ages of 50 and 74 years of age (inclusive) who gave written informed consent for participation in the study. […] The subject's Screening/Baseline mean L1-L4 lumbar bone mineral density (BMD) of the spine must be less than +2.0 standard deviations and greater than −2.5 standard deviations of age-and sex-matched bone mineral density (Z-score) as determined by standards of the manufacturer of the Dual X-ray Absorptiometer (DXA) used in the determination of that BMD. […] The subjects' endometrial thickness were typically <5 mm as determined by transvaginal ultrasound (TVU) and subjects outside of this criteria were asked to undergo additional baseline evaluation following initial randomization. […]"}, "postmenopausal women [2]": {"tested_on": "postmenopausal women", "assay": "Randomized, double blind, placebo controlled study of oral lasofoxifene on sleep (Sleep Problems subscale of Women's Health Questionnaire)", "format": "in vivo, human", "settings": "3 months assessment", "procedure": "The Effects of Oral Administration of (−)-cis-6-phenyl-5-[4-(2-pyrrolidin-1-yl-ethoxy)-phenyl]-5,6,7,8-tetrahydro-naphthalene-2-ol, D-tartrate salt (lasofoxifene) on Sleep: A Randomized, Double Blind, Placebo Controlled Study\nas §1, with “Subjects:” for “The Effects of Oral Administration of (−)-cis-6-phenyl-5-[4-(2-pyrrolidin-1-yl-ethoxy)-phenyl]-5,6,7,8-tetrahydro-naphthalene-2-ol, D-tartrate salt (Iasofoxifene) on Joint Pain: A Randomized, Double Blind, Placebo Controlled Study Subjects:”\nAssessment Method: Patient self-report recorded on Sleep Problems subscale of standardized questionnaire, Women's Health Questionnaire (WHQ; Hunter, M. 1992. Psychology and Health, 7: 45-54)."}},
  "data": [
    {"molecule": "O=C(O)C(O)C(O)C(=O)O.Oc1ccc2c(c1)CC[C@H](c1ccccc1)[C@@H]2c1ccc(OCCN2CCCC2)cc1", "note": "[Lasofoxifene, (−)-cis-6-phenyl-5-[4-(2-pyrrolidin-1-yl-ethoxy)-phenyl]-5,6,7,8-tetrahydro-naphthalene-2-ol, D-tartrate salt]", "values": [
      {"measurement": "Joint Pain Changes Resulting From Treatment (Mean Change from Baseline)", "setting": "postmenopausal women [1]; lasofoxifene 0.25 mg/day oral", "value": "−8.16"},
      {"measurement": "Joint Pain Changes Resulting From Treatment (Mean Change from Baseline)", "setting": "postmenopausal women [1]; lasofoxifene 1.0 mg/day oral", "value": 4.52},
      {"measurement": "Improvement in sleep (less sleep disturbance) vs. placebo, in words", "setting": "postmenopausal women [2]; lasofoxifene 0.4 mg treatment group vs. placebo", "value": "statistically significant improvement in sleep"},
      {"measurement": "Mean Change from Baseline (WHQ Sleep Problems subscale)", "setting": "postmenopausal women [2]; lasofoxifene 0.4 mg/day oral, patient self-report", "value": "−0.09"}
    ]}
  ]
}
